Assay results: patent US6469028B1, “Synthesis and use of retinoid compounds having negative hormone and/or anatgonist activities” (Allergan, Inc., priority 1995, dated 2002)

Experiments:
hairless mice [1] = assay: Example 1: skin irritation by topical agonist, topical antagonist; format: in vivo; details: group B: AGN 191183 0.025 mg/kg/d topical alone, 5 days, scored to day 8, mean±SD
Procedure: More particularly skin irritation was measured on a semiquantitative scale by the daily subjective evaluation of skin flaking and abrasions. A single number, the topical irritation score, summarizes the skin irritation induced in an animal during the course of an experiment. The topical irritation score is calculated as follows. The topical irritation score is the algebraic sum of a composite flaking score and a composite abrasion score. The composite scores range from 0-9 and 0-8 for flaking and abrasions, respectively, and take into account the maximum severity, the time of onset, and the average severity of the flaking and abrasions observed.
The severity of flaking is scored on a 5-point scale and the severity of abrasions is scored on a 4-point scale, with higher scores reflecting greater severity. The maximum severity component of the composite scores would be the highest daily severity score assigned to a given animal during the course of observation.
For the time of onset component of the composite score, a score ranging from 0 to 4 is assigned as follows:
The average severity component of the composite score is the sum of the daily flaking or abrasion scores divided by the number of observation days.
To calculate the composite flaking and abrasion scores, the average severity and time of onset scores are summed and divided by 2. The result is added to the maximal severity score. The composite flaking and abrasion scores are then summed to give the overall topical irritation score. Each animal receives a topical irritation score, and the values are expressed as the mean±SD of the individual scores of a group of animals. Values are rounded to the nearest integer.
Female hairless mice [Crl:SKH1-hrBR] […] Treatments are applied to the dorsal skin in a total volume of 4 ml/kg (˜0.1 ml). Mice were observed daily and scored for flaking and abrasions up to and including 3 days after the last treatment, i.e., day 8.

hairless mice [2] = assay: Example 2: skin irritation and weight loss by oral agonist, topical antagonist; format: in vivo; details: group B: oral AGN 191183 0.26 mg/kg/d alone, 4 days
Procedure: Mice were simultaneously treated topically on the dorsal skin with vehicle (97.6% acetone/2.4% dimethylsulfoxide) or solutions of AGN 193109 in vehicle (6 ml/kg). Specific doses for the different treatment groups are give in Table 8. Treatments were administered daily for 4 consecutive days. Mice were weighed and graded for topical irritation daily as described in Example 1 up to and including 1 day after the last treatment. Percent body weight change is calculated by subtracting […], dividing by initial body weight, and multiplying by 100%. Topical irritation scores are calculated as described in Example 1.

guinea pigs = assay: Example 5: premature epiphyseal plate closure (bone toxicity); format: in vivo; details: AGN 191183 0.06 mg/ml, intraperitoneal osmotic pump, 14 days, n=4
Procedure: The osmotic pumps are designed by the manufacturer to deliver ˜5 μl of solution per hour continuously for 14 days.
The animals were euthanized by carbon dioxide asphyxiation 14 days after implantation. The left tibia was removed and placed in 10% buffered formalin. The tibias were decalcified by exposure to a formic acid/formalin solution for 3-4 days, and paraffin sections were prepared. Sections were stained with hematoxylin and eosin by standard methods. The proximal tibial epiphyseal plate was examined and scored as closed or not closed. Epiphyseal plate closure is defined for this purpose as any interruption of the continuity of the epiphyseal growth plate cartilage, i.e., replacement by bone and/or fibroblastic tissue.

ECE16-1 cells = assay: Example 17: EGF dependent proliferation of ECE16-1 cells; format: cell-based; details: 10 nM AGN 191183 and 0 nM AGN 193109, three days
Procedure: ECE16-1 cells were seeded at a density of 1×10^4 cells per cm^2 in complete medium containing DMEM:F12 (3:1), nonessential amino acids, 5% FBS, 5 μg/ml transferring, 2 nM of 3,3′,5 triiodothyronine (thyroid hormone or “T3”), 0.1 nNM cholera toxin, 2 mM L-glutamine, 1.8×10^−4 M adenine and 10 ng/ml EGF. Cells were allowed to attach to plates overnight and then shifted to defined medium containing DMEM:F12 (3:1), 2 mM L-glutamine, nonessential amino acids, 0.1% bovine serum albumin, 1.8×10^−4 M adenine, 5 μg/ml transferring, 2 nM T3, 50 μg/ml ascorbic acid, 100 ug/ml streptomycin, 100 units/ml penicillin and 50 μg/ml gentamicin. Defined medium (DM) was supplemented with 10 ng/ml EGF. […] After three days of treatment, cells were harvested as described by Hembree et al. in Cancer Res. 54:3160 (1994) and cell numbers determined using a COULTER counter.

CaSki cells = assay: Example 18: proliferation of CaSki cells; format: cell-based
Procedure: EGF was added to the retinoid treated cultures to give a final concentration of 20 ng/ml. […] The media was replaced with fresh media and each of the two retinoid compounds, as appropriate, every day. Cell numbers were determined using a COULTER counter as described above.

[3] = system: MRP-8 expression in primary foreskin keratinocytes; assay: Example 20: MRP-8 expression in keratinocytes (RT-PCR); format: cell-based, human; details: AGN 191183 10^−7 M or AGN 193109 10^−6 M, 3 days
Text: Primary foreskin keratinocytes were isolated according to the procedure described by Nagpal et al. in J. Biol. Chem. 270:923 (1995) and cultured in keratinocyte growth medium (KGM) that was purchased from Clonetics. […] The mRNA was reverse transcribed into cDNA which then served as the template in a PCR amplification protocol using primers specific for either the glyceraldehyde phosphate dehydrogenase (GAPDH) housekeeping gene or MRP-8. The GAPDH primers had the sequences [NT] ID NO:6) and [NT] ID NO:7). The MRP-8 primers had the sequences [NT] ID NO:8) and [NT] ID NO:9). An aliquot from the MRP-8 amplification reaction (10 μl) was removed after every cycle of PCR amplification starting from 12 cycles and ending at 21 cycles. Similarly, an aliquot of the GAPDH amplification reaction was removed after every PCR cycle starting at 15 cycles and ending at 24 cycles. […] The staining intensity of the amplification products served as a quantitative measure of the amount of starting MRNA specific for the given primer set.

[4] = system: stromelysin-1 expression in primary foreskin keratinocytes; assay: Example 21: stromelysin-1 expression in keratinocytes (RT-PCR); format: cell-based, human; details: AGN 191183 10^−7 M or AGN 193109 10^−6 M, 24 hours
Procedure: Total RNA prepared from mock-treated and retinoid-treated keratinocytes was reverse transcribed and the resulting cDNA was PCR amplified using β-actin or stromelysin-1 oligo primers exactly as described by Nagpal et al. in J. Biol. Chem. 270:923 (1995)), the disclosure of which has been incorporated by reference. A sample (10 μl) from the PCR amplification reaction was removed after every three cycles starting from 18 cycles of PCR amplification. The sample was electrophoresed on a 2% agarose gel and detected after ethidium bromide staining.

## C/C(=C\c1ccc(C(=O)O)cc1)c1ccc2c(c1)C(C)(C)CCC2(C)C [AGN 191183, 4-[(E)-2-(5,6,7,8-tetrahydro-5,5,8,8-tetramethylnaphthalen-2-yl)propen-1-yl]benzoic acid, reference compound]
Hairless mice [1]
  Topical Irritation Score: 8 ± 2
Hairless mice [2]
  Topical Irritation Score: 8 ± 1
Hairless mice [2]; day 5 vs day 1, parentheses = loss
  % Weight Gain or (Loss): (21 ± 6) %
Guinea pigs
  epiphyseal plate closure: All four of the AGN 191183-treated guinea pigs showed partial or complete epiphyseal plate closure
ECE16-1 cells
  EGF mediated proliferation: completely inhibited EGF mediated proliferation
CaSki cells; AGN 191183 10^−10 to 10^−6 M, EGF 20 ng/ml, three days
  antiproliferative activity: no antiproliferative activity
CaSki cells; ten thousand fold increase in AGN 191183 concentration
  increase in the proliferation rate: ~20%
[3]
  MRP-8 mRNA expression: inhibited
[4]
  stromelysin-1 mRNA expression: inhibited
